Patent publication US20090023186A1, “USE OF VALPROIC ACID FOR ENHANCING PRODUCTION OF RECOMBINANT PROTEINS IN MAMMALIAN CELLS” (EXCELLGENE SA, priority 2007, published 2009)

Experiments:
HEK293E cells = experiment: Combination with IDMTs, IgG batch yield by ELISA (Example 6); type: cell-based, Human; conditions: VPA 4 mmol/l; no addition = 100%; day 5 after transfection
Description: 10 million suspension-adapted HEK293E cells were resuspended in 0.5 ml of Ex-Cell 293 HEK 293 serum-free medium with 4 mmol/l L-glutamine (Cat. No. 14571C-[…]; Lot No. 6A0093; SAFC Biosciences, Lenexa, Kans., USA, “Ex-Cell” medium; note: “Ex-Cell” medium-as used herein-refers to a medium comprising 4 mmol/l L-glutamine) in a 50-ml filter tube each (TPP AG, Trasadingen, Switzerland; Cat. No. 87050, Lot 20050174). In a separate set, 10 million suspension-adapted CHO DG44 cells were resuspended in 0.5 ml of ProCHO5 serum-free medium with 4 mmol/[…] hypoxanthine and 0.194 g/l thymidine (BioWhittaker (Lonza), Belgium; Cat. No. BE12-[…]; Lot No. 7MB0040; “ProCHO5” medium; note: “ProCHO5” medium-as used herein-refers to a medium comprising 4 mmol/[…] hypoxanthine and 0.194 g/l thymidine) in a 50-ml filter tube each (TPP AG, Trasadingen, Switzerland; Cat. No. 87050, Lot 20050174). Then 12.5 μg plasmid DNA at a concentration of 1 μg/μl was added in each tube with the following composition 50% (6.25 μg) p-LC (SEQ ID NO: 1) 50% (6.25 μg) p-HC (SEQ ID NO: 3). Plasmid p-LC comprises the genetic information for the production of the light chain of an IgG antibody, plasmid p-HC comprises the genetic information for the production of the heavy chain of an IgG antibody. The particular vector constructs used in the present invention can also be obtained from the inventors. The inventors can be contacted via e-mail at […]. […] In short, Goat anti-human kappa light chain IgG (Biosource) was used for coating the ELISA-plates, and with AP-conjugated goat anti-human gamma chain IgG (Biosource) the synthesized IgG1 was detected. […] Absorption was measured at 405 nm against 490 nm using a microplate reader (SPECTRAmaxTM340; Molecular Devices, Palo Alto, Calif., USA).

CHO cells = experiment: Stable cell lines, IgG batch titer by ELISA (Example 5); type: cell-based, Chinese Hamster; conditions: 0.5 mmol/l final VPA; stable mass culture; 5 days after VPA addition

With CCCC(CCC)C(=O)O [VPA, valproic acid] the “Fold increase in batch yield over control” value (HEK293E cells) was 520% ± 30% and the “Batch titer CHO” value (CHO cells) was 35.5 ± 2.5 mg/L.
